According to patent US20080031957A1, “Pulmonary delivery of 1alpha,25-dihydroxyvitamin D3 and co-administration of parathyroid hormone or calcitonin” (priority 2006, published 2008):

Columns and labels:
[1] = Tissue distribution of 1α,25-dihydroxyvitamin D3 after intratracheal (pulmonary) delivery; assay type: in vivo, Sprague Dawley rats
Source text: Sprague Dawley and Brown Norway male rats aged 6-7 weeks were obtained from Harlan Sprague-Dawley (Madison, Wis.) and housed in shoebox cages. Animals were provided a purified rodent diet prepared in-house containing 0.47% calcium and 0.3% phosphorus, and water ad libitum. The diet was supplemented with 1.6 IU vitamin D3/g diet. […] Formulation A was an aqueous solution containing 30% propylene glycol and 5% ethanol at pH 7.0. Formulation B was also an aqueous solution further containing 0.4% TWEEN polysorbate 20 [1 mL of solution contains: 4 mg Tween Polysorbate 20, 1.5 mg sodium chloride, 10 mg sodium ascorbate, 7.6 mg sodium phosphate (dibasic), 1.8 mg sodium phosphate (monodibasic) and 1.1 mg disodium […]], pH 7.0. Intratracheal delivery of 1α,25-dihydroxyvitamin D3. 5 μCi of 1α,25-dihydroxyvitamin D3 was delivered intratracheally to anesthetized (isoflurane) Sprague Dawley rats by using the MicroSprayerTM Model 1C following the manufacturer's protocol (PennCentury, Philadelphia, Pa). The device included a stainless steel tube measuring 0.64 mm in diameter attached to a high-pressure syringe (Model FMJ-250, PennCentury). An atomizer at the very tip of the tube generated the aerosol plume. The MicroSprayerTM was inserted deep into the trachea allowing delivery of aerosolized compounds into the lungs. 1α,25-dihydroxyvitamin D3 was administered in either 100 μL (Formulation A and Formulation B) or 200 μL (Formulation A) dose volumes. As a quench control, a group of animals were dosed with either Formulation A or Formulation B. Tissue analysis. Using a duration of 4 hours and a duration of 10 minutes after administering the dose, the animals were anesthetized with isoflurane and blood was collected from the heart. The trachea, lungs and stomach were removed, dehydrated in alcohol and pulverized. Samples weighing 20-100 mg were placed in 1 mL Solvable (Packard BioScience B. V., The Netherlands) and incubated at 60° C. overnight. Next, 10 mL of Optima Gold (Perkin Elmer, Boston, Mass.) was added to the samples, and radioactivity was measured using a liquid scintillation analyzer (TRI-CARB 2100 TR, Packard). To determine the presence of 1α,25-dihydroxyvitamin D3 in the blood, 200-300 μL of serum in 10 mL Optima Gold was used for scintillation counting.

serum calcium levels = assay: Effect of aerosolized 1α,25-dihydroxyvitamin D3 on serum calcium levels; assay type: in vivo, Brown Norway rats; conditions: Formulation A, intratracheal 200 μL doses on Day 0 and Day 2, blood 24 h after last dose
Source text: Sprague Dawley and Brown Norway male rats aged 6-7 weeks were obtained from Harlan Sprague-Dawley (Madison, Wis.) and housed in shoebox cages. Animals were provided a purified rodent diet prepared in-house containing 0.47% calcium and 0.3% phosphorus, and water ad libitum. The diet was supplemented with 1.6 IU vitamin D3/g diet. […] Formulation A was an aqueous solution containing 30% propylene glycol and 5% ethanol at pH 7.0. Formulation B was also an aqueous solution further containing 0.4% TWEEN polysorbate 20 [1 mL of solution contains: 4 mg Tween Polysorbate 20, 1.5 mg sodium chloride, 10 mg sodium ascorbate, 7.6 mg sodium phosphate (dibasic), 1.8 mg sodium phosphate (monodibasic) and 1.1 mg disodium […]], pH 7.0. Effectiveness of Aerosol Delivery of Vitamin D to Pulmonary Tree. 1α,25-dihydroxyvitamin D3 effect on serum calcium levels in Brown Norway rats was determined. Delivery of 1α,25-dihydroxyvitamin D3 (i.e., in vivo activity) was measured to determine the effect of aerosolized 1α,25-dihydroxyvitamin D3 treatment on serum calcium levels. Formulation A containing 1α,25-dihydroxyvitamin D3 was intra-tracheally delivered in 200 μL doses on Day 0 (Day 0 was the first day of treatment) and Day 2. […] Calcium levels were determined by atomic absorption spectroscopy of the serum diluted 0.1% lanthum chloride using a Perkin Elmer Model 3110.

[2] = Formulation A, 100 μL dose, after 10 minutes
[3] = Formulation B, 100 μL dose, after 10 minutes

detected 1α,25-dihydroxyvitamin D3 found in the serum [1, 2]: 53%
detected 1α,25-dihydroxyvitamin D3 found in the stomach [1, 2]: ~1%
detected 1α,25-dihydroxyvitamin D3 found in the trachea and lungs [1, 2]: 46%
detected 1α,25-dihydroxyvitamin D3 found in the serum ([1]; Formulation A, after 4 hours): 60%
detected 1α,25-dihydroxyvitamin D3 found in the stomach ([1]; Formulation A, after 4 hours): 36%
detected 1α,25-dihydroxyvitamin D3 found in the trachea and lungs ([1]; Formulation A, after 4 hours): Less than 5%
detected 1α,25-dihydroxyvitamin D3 found in the serum [1, 3]: 51%
detected 1α,25-dihydroxyvitamin D3 found in the stomach [1, 3]: less than 4%
detected 1α,25-dihydroxyvitamin D3 found in the trachea and lungs [1, 3]: 33%
1α,25-dihydroxyvitamin D3 detected in serum (% of total) ([1]; Formulation B, after 4 hours): 56%
1α,25-dihydroxyvitamin D3 detected in stomach (% of total) ([1]; Formulation B, after 4 hours): 35%
SMILES: C=C1/C(=C\C=C2/CCC[C@]3(C)[C@@H]([C@H](C)CCCC(C)(C)O)CC[C@@H]23)C[C@@H](O)C[C@@H]1O [1α,25-dihydroxyvitamin D3]
increase of serum calcium levels (serum calcium levels; 1 μg/kgBW): 2.8 mg/dL
increase of serum calcium levels (serum calcium levels; 10 μg/kgBW): 4 mg/dL
